ChEMBL document CHEMBL4507268 (2021)

Experiments:
[1] = molecular target: Alpha-1D adrenergic receptor (Homo sapiens) (UniProt P25100); settings: Compound concentration 10.0 uM
[2] = molecular target: Sodium-dependent noradrenaline transporter (Homo sapiens) (UniProt P23975); settings: Compound concentration 10.0 uM
[3] = molecular target: Protein kinase C beta type (Homo sapiens) (UniProt P05771); settings: Compound concentration 1.0 uM
[4] = molecular target: Tyrosine-protein kinase CSK (Homo sapiens) (UniProt P41240); settings: Compound concentration 1.0 uM
Tyrosine-protein kinase CSK (Homo sapiens), sequence (P41240 2-450 limits assumed): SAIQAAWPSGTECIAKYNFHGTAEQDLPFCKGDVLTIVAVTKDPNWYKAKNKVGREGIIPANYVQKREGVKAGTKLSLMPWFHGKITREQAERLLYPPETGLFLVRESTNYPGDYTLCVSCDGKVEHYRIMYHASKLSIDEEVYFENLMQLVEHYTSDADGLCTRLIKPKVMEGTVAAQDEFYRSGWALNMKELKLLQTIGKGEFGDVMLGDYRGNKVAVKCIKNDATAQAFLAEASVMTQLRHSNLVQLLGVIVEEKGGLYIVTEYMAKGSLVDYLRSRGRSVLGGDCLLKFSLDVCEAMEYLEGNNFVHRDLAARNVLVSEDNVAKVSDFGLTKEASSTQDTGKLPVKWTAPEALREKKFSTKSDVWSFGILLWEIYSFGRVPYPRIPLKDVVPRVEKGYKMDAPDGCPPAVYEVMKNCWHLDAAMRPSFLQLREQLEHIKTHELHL

[5] = molecular target: Wee1-like protein kinase 2 (Homo sapiens) (UniProt P0C1S8); settings: Compound concentration 1.0 uM
Wee1-like protein kinase 2 (Homo sapiens), sequence (P0C1S8 whole entry, looked up): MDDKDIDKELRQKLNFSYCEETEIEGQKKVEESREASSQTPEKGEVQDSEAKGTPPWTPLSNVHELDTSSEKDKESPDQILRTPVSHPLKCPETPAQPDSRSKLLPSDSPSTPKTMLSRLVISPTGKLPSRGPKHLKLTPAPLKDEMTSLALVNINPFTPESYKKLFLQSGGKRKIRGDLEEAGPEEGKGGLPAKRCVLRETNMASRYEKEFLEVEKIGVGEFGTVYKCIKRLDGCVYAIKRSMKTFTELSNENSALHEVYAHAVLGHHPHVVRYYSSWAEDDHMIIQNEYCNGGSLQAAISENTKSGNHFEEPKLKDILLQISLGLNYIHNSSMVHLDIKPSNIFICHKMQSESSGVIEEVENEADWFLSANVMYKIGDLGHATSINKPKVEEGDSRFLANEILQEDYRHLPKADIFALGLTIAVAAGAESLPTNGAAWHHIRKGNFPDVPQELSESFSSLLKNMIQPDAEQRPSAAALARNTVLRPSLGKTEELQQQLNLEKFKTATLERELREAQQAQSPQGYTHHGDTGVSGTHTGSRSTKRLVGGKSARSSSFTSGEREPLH

[6] = molecular target: Fibroblast growth factor receptor 1 (Homo sapiens) (UniProt P11362); settings: Compound concentration 1.0 uM
Fibroblast growth factor receptor 1 (Homo sapiens), sequence (P11362 22-822 limits assumed): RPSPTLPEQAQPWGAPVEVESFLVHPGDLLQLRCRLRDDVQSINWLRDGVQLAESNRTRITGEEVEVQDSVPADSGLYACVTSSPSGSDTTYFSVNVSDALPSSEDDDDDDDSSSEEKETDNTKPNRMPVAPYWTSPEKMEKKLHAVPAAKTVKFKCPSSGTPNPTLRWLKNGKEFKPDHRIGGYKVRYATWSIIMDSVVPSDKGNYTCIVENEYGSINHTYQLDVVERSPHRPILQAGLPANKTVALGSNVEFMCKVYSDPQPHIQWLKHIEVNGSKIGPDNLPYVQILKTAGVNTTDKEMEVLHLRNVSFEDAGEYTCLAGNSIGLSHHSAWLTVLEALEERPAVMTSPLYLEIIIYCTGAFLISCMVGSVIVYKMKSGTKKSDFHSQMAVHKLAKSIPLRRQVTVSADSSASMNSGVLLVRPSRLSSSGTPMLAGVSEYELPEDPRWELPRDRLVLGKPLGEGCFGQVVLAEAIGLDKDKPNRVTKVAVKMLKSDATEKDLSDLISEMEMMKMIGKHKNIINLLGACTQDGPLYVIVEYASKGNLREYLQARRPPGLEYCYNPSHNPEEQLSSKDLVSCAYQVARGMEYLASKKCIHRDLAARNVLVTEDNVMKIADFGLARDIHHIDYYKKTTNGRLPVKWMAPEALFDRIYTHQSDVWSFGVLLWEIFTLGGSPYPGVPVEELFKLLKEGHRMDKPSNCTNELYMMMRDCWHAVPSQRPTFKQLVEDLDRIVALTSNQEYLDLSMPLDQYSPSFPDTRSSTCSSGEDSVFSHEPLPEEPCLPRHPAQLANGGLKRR

[7] = molecular target: T1, Mitogen-activated protein kinase kinase kinase 3 (Homo sapiens) (UniProt Q99759); settings: Compound concentration 1.0 uM
T1 sequence (whole entry): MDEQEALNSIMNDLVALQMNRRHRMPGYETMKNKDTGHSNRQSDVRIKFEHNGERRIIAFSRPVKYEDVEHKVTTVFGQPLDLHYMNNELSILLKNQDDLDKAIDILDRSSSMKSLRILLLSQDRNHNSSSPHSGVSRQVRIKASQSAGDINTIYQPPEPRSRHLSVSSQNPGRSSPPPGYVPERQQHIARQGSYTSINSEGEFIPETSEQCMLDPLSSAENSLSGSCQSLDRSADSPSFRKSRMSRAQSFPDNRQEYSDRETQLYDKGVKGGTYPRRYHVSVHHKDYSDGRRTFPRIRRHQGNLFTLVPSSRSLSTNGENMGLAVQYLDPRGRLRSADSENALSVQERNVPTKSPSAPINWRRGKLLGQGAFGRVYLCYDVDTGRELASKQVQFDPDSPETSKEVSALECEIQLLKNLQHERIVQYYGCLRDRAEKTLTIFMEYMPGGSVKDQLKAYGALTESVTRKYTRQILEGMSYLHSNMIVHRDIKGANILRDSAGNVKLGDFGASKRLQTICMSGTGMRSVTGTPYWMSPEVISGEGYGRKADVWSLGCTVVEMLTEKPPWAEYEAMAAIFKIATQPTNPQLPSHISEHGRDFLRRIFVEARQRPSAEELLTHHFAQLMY

[8] = molecular target: Calcium/calmodulin-dependent protein kinase kinase 2 (Homo sapiens) (UniProt Q96RR4); settings: Compound concentration 1.0 uM
[9] = molecular target: Activin receptor type-1-like (Homo sapiens) (UniProt P37023); settings: Compound concentration 1.0 uM
[10] = molecular target: T2, cGMP-dependent protein kinase 1 (Homo sapiens) (UniProt Q13976); settings: Compound concentration 1.0 uM
T2 sequence (whole entry): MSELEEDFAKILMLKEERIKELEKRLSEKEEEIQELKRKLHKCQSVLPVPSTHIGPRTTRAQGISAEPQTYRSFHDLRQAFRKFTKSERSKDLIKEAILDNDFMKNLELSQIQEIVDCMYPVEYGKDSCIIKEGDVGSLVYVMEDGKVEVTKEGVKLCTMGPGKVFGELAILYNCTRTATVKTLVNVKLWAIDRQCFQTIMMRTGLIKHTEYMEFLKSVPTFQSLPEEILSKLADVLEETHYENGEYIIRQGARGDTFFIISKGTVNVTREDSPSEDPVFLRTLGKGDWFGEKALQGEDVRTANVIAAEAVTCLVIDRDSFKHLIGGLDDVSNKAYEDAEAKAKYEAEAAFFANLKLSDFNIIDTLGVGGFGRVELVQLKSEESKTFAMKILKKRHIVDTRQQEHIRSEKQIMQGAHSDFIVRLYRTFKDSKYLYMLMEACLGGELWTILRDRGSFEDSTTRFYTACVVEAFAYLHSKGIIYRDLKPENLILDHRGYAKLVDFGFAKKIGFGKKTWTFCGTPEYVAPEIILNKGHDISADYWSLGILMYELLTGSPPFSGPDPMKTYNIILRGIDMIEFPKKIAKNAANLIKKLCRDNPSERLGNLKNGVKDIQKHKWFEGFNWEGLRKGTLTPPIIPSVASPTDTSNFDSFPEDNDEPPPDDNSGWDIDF

[11] = molecular target: CDK4/Cyclin D3 (Homo sapiens) (UniProt P11802+P30281); settings: Compound concentration 1.0 uM
[12] = molecular target: Dual specificity tyrosine-phosphorylation-regulated kinase 1A (Homo sapiens) (UniProt Q13627); settings: Compound concentration 1.0 uM
[13] = molecular target: Bone morphogenetic protein receptor type-1B (Homo sapiens) (UniProt O00238); settings: Compound concentration 1.0 uM
Bone morphogenetic protein receptor type-1B (Homo sapiens), sequence (O00238 whole entry, the tested form may be a part): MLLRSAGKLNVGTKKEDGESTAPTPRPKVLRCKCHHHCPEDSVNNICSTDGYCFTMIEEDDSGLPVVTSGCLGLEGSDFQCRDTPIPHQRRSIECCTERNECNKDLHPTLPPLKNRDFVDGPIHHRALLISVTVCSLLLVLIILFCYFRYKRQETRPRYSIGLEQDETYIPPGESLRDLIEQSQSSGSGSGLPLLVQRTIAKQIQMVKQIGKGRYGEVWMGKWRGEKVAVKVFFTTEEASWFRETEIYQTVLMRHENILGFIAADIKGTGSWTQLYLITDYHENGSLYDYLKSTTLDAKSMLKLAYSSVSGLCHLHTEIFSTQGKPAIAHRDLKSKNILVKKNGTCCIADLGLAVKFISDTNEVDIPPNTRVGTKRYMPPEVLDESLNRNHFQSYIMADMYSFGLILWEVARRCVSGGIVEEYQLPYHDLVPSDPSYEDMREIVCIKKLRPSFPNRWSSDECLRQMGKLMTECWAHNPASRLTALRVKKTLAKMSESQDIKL

[14] = molecular target: Phosphatidylinositol 4-phosphate 3-kinase C2 domain-containing subunit alpha (Homo sapiens) (UniProt O00443); settings: Compound concentration 1.0 uM
[15] = molecular target: Ephrin type-A receptor 5 (Homo sapiens) (UniProt P54756); settings: Compound concentration 1.0 uM
[16] = molecular target: Sodium-dependent dopamine transporter (Homo sapiens) (UniProt Q01959); settings: Compound concentration 10.0 uM
Sodium-dependent dopamine transporter (Homo sapiens), sequence (Q01959 whole entry): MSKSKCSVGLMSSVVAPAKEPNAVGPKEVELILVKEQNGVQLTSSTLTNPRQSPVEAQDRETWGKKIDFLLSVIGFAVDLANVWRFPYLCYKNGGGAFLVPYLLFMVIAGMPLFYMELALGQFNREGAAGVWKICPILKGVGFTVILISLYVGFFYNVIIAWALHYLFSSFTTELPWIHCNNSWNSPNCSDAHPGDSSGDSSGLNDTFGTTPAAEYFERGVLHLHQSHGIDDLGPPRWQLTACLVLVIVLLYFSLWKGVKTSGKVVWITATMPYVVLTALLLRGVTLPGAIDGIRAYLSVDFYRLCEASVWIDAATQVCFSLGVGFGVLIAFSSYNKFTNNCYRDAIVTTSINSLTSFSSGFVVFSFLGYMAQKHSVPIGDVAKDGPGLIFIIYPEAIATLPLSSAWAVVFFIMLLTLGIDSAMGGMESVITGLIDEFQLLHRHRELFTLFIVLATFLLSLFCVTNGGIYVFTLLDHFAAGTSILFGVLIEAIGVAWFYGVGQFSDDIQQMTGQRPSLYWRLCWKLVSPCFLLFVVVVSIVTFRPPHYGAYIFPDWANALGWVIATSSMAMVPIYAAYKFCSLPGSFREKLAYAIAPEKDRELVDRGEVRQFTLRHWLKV

[17] = molecular target: Dual specificity tyrosine-phosphorylation-regulated kinase 1B (Homo sapiens) (UniProt Q9Y463); settings: Compound concentration 1.0 uM
Dual specificity tyrosine-phosphorylation-regulated kinase 1B (Homo sapiens), sequence (Q9Y463 whole entry, looked up): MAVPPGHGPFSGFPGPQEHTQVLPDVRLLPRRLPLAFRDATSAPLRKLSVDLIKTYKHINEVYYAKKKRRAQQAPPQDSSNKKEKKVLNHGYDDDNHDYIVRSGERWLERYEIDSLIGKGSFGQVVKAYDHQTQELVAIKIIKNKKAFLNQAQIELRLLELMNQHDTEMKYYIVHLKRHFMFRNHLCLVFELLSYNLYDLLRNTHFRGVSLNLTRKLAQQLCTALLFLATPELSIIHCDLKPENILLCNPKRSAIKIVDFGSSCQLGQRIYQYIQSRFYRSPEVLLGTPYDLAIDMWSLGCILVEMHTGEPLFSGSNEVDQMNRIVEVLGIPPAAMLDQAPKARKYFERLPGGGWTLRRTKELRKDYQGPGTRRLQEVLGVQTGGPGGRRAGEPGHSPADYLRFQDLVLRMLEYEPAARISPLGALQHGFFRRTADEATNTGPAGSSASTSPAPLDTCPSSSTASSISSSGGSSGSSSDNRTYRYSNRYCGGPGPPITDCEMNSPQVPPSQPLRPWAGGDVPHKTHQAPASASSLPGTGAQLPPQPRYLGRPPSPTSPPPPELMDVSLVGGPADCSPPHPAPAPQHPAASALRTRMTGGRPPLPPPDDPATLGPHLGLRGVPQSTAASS

[18] = molecular target: Serine/threonine-protein kinase SBK1 (Homo sapiens) (UniProt Q52WX2); settings: Compound concentration 1.0 uM
Serine/threonine-protein kinase SBK1 (Homo sapiens), sequence (Q52WX2 whole entry): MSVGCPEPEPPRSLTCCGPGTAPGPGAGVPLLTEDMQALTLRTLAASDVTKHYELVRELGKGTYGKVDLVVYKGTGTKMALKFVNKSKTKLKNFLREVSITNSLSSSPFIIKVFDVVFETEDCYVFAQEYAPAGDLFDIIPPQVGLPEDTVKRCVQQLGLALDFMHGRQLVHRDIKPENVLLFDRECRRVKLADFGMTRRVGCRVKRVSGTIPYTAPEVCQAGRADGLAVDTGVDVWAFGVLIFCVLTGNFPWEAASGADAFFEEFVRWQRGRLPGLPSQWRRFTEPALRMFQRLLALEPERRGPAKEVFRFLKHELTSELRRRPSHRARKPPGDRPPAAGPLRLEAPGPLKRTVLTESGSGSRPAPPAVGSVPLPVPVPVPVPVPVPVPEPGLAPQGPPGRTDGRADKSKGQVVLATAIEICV

[19] = molecular target: Protein kinase C delta type (Homo sapiens) (UniProt Q05655); settings: Compound concentration 1.0 uM
[20] = molecular target: Proto-oncogene tyrosine-protein kinase Src (Homo sapiens) (UniProt P12931); settings: Compound concentration 1.0 uM
Proto-oncogene tyrosine-protein kinase Src (Homo sapiens), sequence (P12931 2-536 limits assumed): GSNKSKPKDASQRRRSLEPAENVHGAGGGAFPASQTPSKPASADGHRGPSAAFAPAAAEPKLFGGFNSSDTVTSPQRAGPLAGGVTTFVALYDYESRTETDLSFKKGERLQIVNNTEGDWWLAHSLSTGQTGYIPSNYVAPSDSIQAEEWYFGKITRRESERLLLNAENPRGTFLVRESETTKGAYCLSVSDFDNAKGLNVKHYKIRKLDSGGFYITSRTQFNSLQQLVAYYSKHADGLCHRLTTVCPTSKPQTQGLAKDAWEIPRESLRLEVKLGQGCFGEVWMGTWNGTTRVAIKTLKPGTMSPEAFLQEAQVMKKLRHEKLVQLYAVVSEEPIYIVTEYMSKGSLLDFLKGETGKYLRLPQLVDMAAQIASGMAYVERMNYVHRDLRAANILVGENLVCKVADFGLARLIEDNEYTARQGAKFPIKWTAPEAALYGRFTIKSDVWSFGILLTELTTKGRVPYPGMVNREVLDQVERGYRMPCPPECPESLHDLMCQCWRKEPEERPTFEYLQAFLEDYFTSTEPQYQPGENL

[21] = molecular target: T2, cGMP-dependent protein kinase 1 (Homo sapiens); settings: Compound concentration 1.0 uM; remark: listed apart in the source

Cc1nc(C2CCN(C(=O)c3ccc(OC(F)(F)F)cc3N)CC2)c2ncc(N3CCN(C)CC3)cc2n1 [BAY-693]
inactive: inhibition [1] 5.29% | inhibition [2] 24.6%

CN1CCN(c2cnc3c(C4CCN(C(=O)c5ccc(OC(F)(F)F)cc5N)CC4)ncnc3c2)CC1 [BAY-885]
inactive: % residual kinase activity [3] 110% | % residual kinase activity [4] 102% | % residual kinase activity [5] 124% | % residual kinase activity [6] 101% | % residual kinase activity [7] 94% | % residual kinase activity [8] 102% | % residual kinase activity [9] 118% | % residual kinase activity [10] 115% | % residual kinase activity [11] 106% | % residual kinase activity [12] 112% | % residual kinase activity [13] 102% | % residual kinase activity [14] 96% | % residual kinase activity [15] 57% | inhibition [16] -4.2% | % residual kinase activity [17] 106% | % residual kinase activity [18] 96% | % residual kinase activity [19] 115% | % residual kinase activity [20] 113% | % residual kinase activity [21] 122%
